Laboratory results: US20150359795A1, “HIGH DRUG LOAD PHARMACEUTICAL COMPOSITIONS WITH CONTROLLABLE RELEASE RATE AND PRODUCTION METHODS THEREOF” (Pharmosa Limited, priority 2014, published 2015)
Structures can show the parent of a compound that is named as a salt.

Tests used:
[1] = Viscosity of saturated or unsaturated aqueous solutions of APIs, rotational viscometer (Brooksfield); assay type: physicochemical
Description: The viscosities of saturated aqueous solutions or aqueous solutions with different weight percentage are measured with Rotational viscometers (Brooksfield, USA) at constant temperature 25° C., and the rotation speed is 5-100 rpm.
(§1) The viscosities of saturated aqueous solutions or aqueous solutions with different weight percentage of the compounds are measured with Rotational viscometers (Brooksfield, USA) at 25° C.

[2] = Tablet-forming ability of APIs (self-granulation with water, hardness and friability of tablets); assay type: physicochemical; settings: tablets of 99% API and 1% magnesium stearate, about 100 mg; for The tablet-forming ability Hardness of tablets (kp): wet granulated with purified water
Description: as §1
Each API listed in Table 1-1 is separately weighed […] and wet granulated in a high shear mixer using purified water. The wet granules are dried in an oven and sieved with 20 mesh screen. Each of the dried granules is separately transferred into a V-blender, and mixed with 5 g of magnesium stearate. The obtained mixture is compressed into tablets. Every tablet weighs about 100 mg, and contains magnesium stearate and an individual API.

[3] = prior art formulation with lactose, microcrystalline cellulose, crospovidone, magnesium stearate; cited from earlier work

SMILES	Unsaturated aqueous solution at 25° C. Viscosity (cP) ([1]; weight percent 30%)	Saturated aqueous solution at 25° C. Viscosity (cP) [1] [cP]	The tablet-forming ability Friability of tablets (%) [2] [%]	The tablet-forming ability Hardness of tablets (kp) [2]	Unsaturated aqueous solution at 25° C. Viscosity (cP) ([1]; weight percent 25%)	Unsaturated aqueous solution at 25° C. Viscosity (cP) ([1]; weight percent 10%)	drug dissolved in 5 minutes in vitro [3]
COc1cc2nc(N(C)CCCNC(=O)C3CCCO3)nc(N)c2cc1OC (stereo not shown) [Alfuzosin HCl]	~10	~170	<0.1	3-8 kp	–	–	–
NS(=O)(=O)c1cc2c(cc1Cl)NCNS2(=O)=O [Hydrochlorothiazide]	–	~1	–	–	–	–	–
Cc1ccc(NC(=O)c2ccc(CN3CCN(C)CC3)cc2)cc1Nc1nccc(-c2cccnc2)n1 [Imatinib mesylate]	–	~1100	<0.1	3-8 kp	~15	–	–
CN(C)C(=N)N=C(N)N [Metformin HCl]	–	~2	–	–	–	–	–
CCCCCCCCOc1ccccc1C(=O)Nc1ccc(C(=O)OCC[N+](C)(CC)CC)cc1 [Otilonium bromide]	–	~540	<0.1	3-8 kp	–	~12	more than 90%
CCN1CCCC1CNC(=O)c1cc(S(N)(=O)=O)ccc1OC (stereo not shown) [Sulpiride]	–	~2	–	–	–	–	–
